Measurements taken from US7329651B2 (priority 2001, dated 2008).
Where two headings read alike, the source gives them in different places.

How the values were obtained:
CB2 receptor = target: T1, CB2 receptor (Mus musculus, UniProt P47936); assay: biochemical; format: binding; details: for Selectivity for CB2: ratio of CB1 Ki to CB2 Ki
T1 construct: membranes were prepared from frozen mouse spleen; from tissue; host or cells: mouse spleen
Procedure: (§1) The prepared cannabinoid compounds were tested for CB2 receptor binding affinity and for CB1 receptor affinity (to determine selectivity for the CB2 receptor). As used herein, “binding affinity” is represented by the IC50 value which is the concentration of an analog required to occupy the 50% of the total number (Bmax) of the receptors. The lower the IC50 value, the higher the binding affinity. […] The binding affinities (Ki) are expressed in nanomoles (nM).
(§2) The treated membranes were subsequently used in the binding assay described below. Approximately 30 μg of membranes were incubated in silanized 96-well microtiter plate with TME containing 0.1% essentially fatty acid-free bovine serum albumin (BSA), 0.8 nM [^3H] CP-55,940, and various concentrations of test materials at 30° C. for 1 hour. The samples were immediately filtered using a Packard Filtermate 196 and Whatman GF/C filterplates and washed with wash buffer (TME) containing 0.5% BSA. Radioactivity was detected using MicroScint 20 scintillation cocktail added directly to the dried filterplates, and the filterplates were counted using a Packard Instruments Top-Count. Nonspecific binding was assessed using 100 nM CP-55,940. Data collected from three independent experiments performed with duplicate determinations was normalized between 100% and 0% specific binding for [^3H] CP-55,940, determined using buffer and 100 nM CP-55,940. The normalized data was analyzed using a 4-parameter nonlinear logistic equation to yield IC50 values. Data from at least two independent experiments performed in duplicate was used to calculate IC50 values which were converted to Ki values using the using the assumptions of Cheng et al; “Relationship Between the Inhibition Constant (Ki) and the concentration of Inhibitor which causes 50% Inhibition (IC50) of an Enzymatic Reaction”, Biochem. Pharmacol., 22, 3099-3102, (1973), which is incorporated by reference herein.
For the CB2 receptor binding studies, membranes were prepared from frozen mouse spleen essentially according to the procedure of P. R. Dodd et al; “A Rapid Method for Preparing Synaptosomes: Comparison with Alternative Procedures”, Brain Res., 226, 107-118 (1981) which is incorporated by reference herein. Silanized centrifuge tubes were used throughout to minimize receptor loss due to adsorption. The CB2 binding assay was conducted in the same manner as the CB1 binding assay. The binding affinities (Ki) were also expressed in nanomoles (nM).

CB1 cannabinoid receptor = target: T2, CB1 cannabinoid receptor (Rattus norvegicus, UniProt P20272); assay: CB1 receptor binding, [3H] CP-55,940 displacement, rat forebrain membranes
T2 construct: membranes were prepared from rat forebrain membranes; from tissue; host or cells: rat forebrain
Procedure: as §1
For the CB1 receptor binding studies, membranes were prepared from rat forebrain membranes according to the procedure of P. R. Dodd et al; A Rapid Method for Preparing Synaptosomes: Comparison with Alternative Procedures, Brain Res., 107-118 (1981). The binding of the novel analogues to the CB1 cannabinoid receptor was assessed as described in W. A. Devane et al; Determination and Characterization of a Cannabinoid Receptor in a Rat Brain, Mol. Pharmacol., 34, 605-613 (1988) and A. Charalambous et al; “5′-azido ^8−THC: A Novel Photoaffinity Label for the Cannabinoid Receptor”, J. Med. Chem., 35, 3076-3079 (1992) with the following changes. The above articles are incorporated by reference herein.
Membranes, previously frozen at −80° C., were thawed on ice. To the stirred suspension was added three volumes of TME (25 mM Tris-HCl buffer, 5 mM MgCl2 and 1 mM EDTA) at a pH 7.4. The suspension was incubated at 40° C. for 30 min. At the end of the incubation, the membranes were pelleted and washed three times with TME.
as §2

CB2 = CB2 (Homo sapiens, UniProt P34972); assay: Intracellular cyclic AMP levels, comparative protein binding assay (adenylate cyclase inhibition); format: cell-based; details: intracellular cAMP
Procedure: Intracellular cyclic AMP (cAMP) levels are measured with a comparative protein binding assay (materials available from Diagnostic Products, Inc. of Carlsbad, Calif.) generally according to the method described in Tao, Q. and M. E. Abood; “Mutation of a highly conserved aspartate residue in the second transmembrane domain of the cannabinoid receptors, CB1 and CB2, disrupts G-protein coupling”, J Pharmacol Exp Ther, 1998, 285(2): pp. 651-658, which is incorporated by reference herein. […] The IC50 value for Compound 2 was 8 nM.

[1] = mouse spleen membranes, [3H] CP-55,940, read-out: Ki(nM) CB2
[2] = rat forebrain membranes, 0.8 nM [3H] CP-55,940, read-out: Ki(nM) CB1

T2 sequence (P20272 whole entry): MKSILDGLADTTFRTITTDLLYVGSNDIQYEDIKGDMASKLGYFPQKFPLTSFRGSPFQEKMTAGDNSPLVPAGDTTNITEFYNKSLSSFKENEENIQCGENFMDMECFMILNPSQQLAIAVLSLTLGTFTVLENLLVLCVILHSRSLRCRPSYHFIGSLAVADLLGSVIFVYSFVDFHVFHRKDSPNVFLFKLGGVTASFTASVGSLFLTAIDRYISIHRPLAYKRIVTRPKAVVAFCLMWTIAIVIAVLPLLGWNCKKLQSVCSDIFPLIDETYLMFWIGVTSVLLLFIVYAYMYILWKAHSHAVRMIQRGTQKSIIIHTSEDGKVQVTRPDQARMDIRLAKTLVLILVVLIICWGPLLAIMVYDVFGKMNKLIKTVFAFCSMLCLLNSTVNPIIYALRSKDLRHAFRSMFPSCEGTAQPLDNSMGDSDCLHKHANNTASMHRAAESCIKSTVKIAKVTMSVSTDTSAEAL
T1 sequence (P47936 whole entry): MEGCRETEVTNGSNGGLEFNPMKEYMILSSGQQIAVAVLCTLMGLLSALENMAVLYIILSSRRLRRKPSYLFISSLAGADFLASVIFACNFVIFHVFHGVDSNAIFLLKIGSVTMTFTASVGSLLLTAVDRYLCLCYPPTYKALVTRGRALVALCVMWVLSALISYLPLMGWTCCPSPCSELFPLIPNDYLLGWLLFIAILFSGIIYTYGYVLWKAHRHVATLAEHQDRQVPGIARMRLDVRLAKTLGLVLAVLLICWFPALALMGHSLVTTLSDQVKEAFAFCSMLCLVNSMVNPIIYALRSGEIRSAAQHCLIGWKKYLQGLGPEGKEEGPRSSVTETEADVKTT
CB2, sequence (P34972 whole entry, species assumed, the tested form may be a part): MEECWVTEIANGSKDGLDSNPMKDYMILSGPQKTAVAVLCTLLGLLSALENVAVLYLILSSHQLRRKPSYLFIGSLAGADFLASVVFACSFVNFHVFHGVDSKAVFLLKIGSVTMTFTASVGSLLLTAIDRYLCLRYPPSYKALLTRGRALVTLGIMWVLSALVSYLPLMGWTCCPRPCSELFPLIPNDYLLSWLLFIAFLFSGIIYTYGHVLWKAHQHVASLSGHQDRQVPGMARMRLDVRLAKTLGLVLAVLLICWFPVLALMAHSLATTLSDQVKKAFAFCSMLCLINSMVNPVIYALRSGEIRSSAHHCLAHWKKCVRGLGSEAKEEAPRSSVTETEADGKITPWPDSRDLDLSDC

Compound	melting point [°C]	Ki (CB2 receptor; [1]) [nM]	Selectivity for CB2 (CB2 receptor)	Ki (CB1 cannabinoid receptor; [2]) [nM]	further results
COC(=O)C1=NN(c2ccccc2)C(C(=O)OC)=NN1c1ccccc1 [compound 1, Dimethyl 1,4-diphenyl-1,4-dihydro-1,2,4,5-tetrazine-3,6-dicarboxylate]	171 to 172	381	81	31000	–
CCOC(=O)C1=NN(c2ccc(OC)cc2)C(C(=O)OCC)=NN1c1ccc(OC)cc1 [compound 18]	–	72	64	4590	–
CCOC(=O)C1=NN(C(=O)c2ccccc2I)C(C(=O)OCC)=NN1C(=O)c1ccccc1I	186 to 187	–	–	–	–
CCNC(=O)C1=NN(c2ccccc2)C(C(=O)NCC)=NN1c1ccccc1 [compound 7]	–	–	1	100000	–
CCOC(=O)C1=NN(c2ccc(Cl)cc2)C(C(=O)OCC)=NN1c1ccccc1 [compound 22, 1-(4-chlorophenyl)-4-phenyl-1,4-dihydro-1,2,4,5-tetrazine-3,6-dicarboxylic acid diethyl ester]	–	43	34	1500	–
CCOC(=O)C1=NN(c2ccc(Cl)cc2)C(C(=O)OCC)=NN1c1ccc(Cl)cc1 [compound 16, 1,4-Di-(4-chlorophenyl)-1,4-dihydro-1,2,4,5-tetrazine-3,6-dicarboxylic acid diethyl ester]	–	48	4.3	208	–
NC(=O)C1=NN(c2ccccc2)C(C(N)=O)=NN1c1ccccc1 [compound 5]	–	10000	1	10000	–
CCOC(=O)C1=NN(c2ccccc2)C(C(=O)OCC)=NN1c1ccccc1 [compound 2]	–	19	88	1670	effect on formation of cyclic AMP (CB2; adenylate cyclase): reduce formation of cyclic AMP by inhibiting adenylate cyclase; IC50 (CB2; read-out: IC50 value, reduction of cyclic AMP formation): 8 nM
CC1C(NC(=O)C2=NN(c3ccccc3)C(C(=O)NC3CC4CC(C3C)C4(C)C)=NN2c2ccccc2)CC2CC1C2(C)C (stereo not shown) [compound 11]	–	–	1	–	Ki (CB1 cannabinoid receptor): 100000 nM
CNC(=O)C1=NN(c2ccccc2)C(C(=O)NC)=NN1c1ccccc1 [compound 6]	–	–	1	66000	–
O=C(C1=NN(c2ccccc2)C(C(=O)N2CCCCC2)=NN1c1ccccc1)N1CCCCC1 [compound 9]	–	221	42	9990	–
CCOC(=O)C1=NN(c2ccccc2)C(C(C)=O)=NN1c1ccccc1 [compound 12, 1,4-Diphenyl-1,4-dihydro-1,2,4,5-tetrazine-3-aceto-6-carboxylic acid ethyl ester]	–	327	24	7700	–
CCN(CC)C(=O)C1=NN(c2ccccc2)C(C(N)=O)=NN1c1ccccc1 [compound 7, N,N-Diethyl-1,4-diphenyl-1,4-dihydro-1,2,4,5-tetrazine-3,6-dicarboxylic di-amide]	239 to 240	–	–	–	–
CCOC(=O)C1=NN(c2ccc(Br)cc2)C(C(=O)OCC)=NN1c1ccc(Br)cc1 [compound 17]	–	200	–	350	–
CCOC(=O)C1=NN(c2cccc3ccccc23)C(C(=O)OCC)=NN1c1ccccc1 [compound 24, 1-Phenyl-4-α-naphthalenyl-1,4-dihydro-1,2,4,5-tetrazine-3,6-dicarboxylic acid diethyl ester]	–	182	40	7360	–
CCCOC(=O)C1=NN(c2ccccc2)C(C(=O)OCCC)=NN1c1ccccc1 [compound 3, Dipropyl-1,4-diphenyl-1,4-dihydro-1,2,4,5-tetrazine-3,6-dicarboxylate]	82.5 to 83	23.3	27	618	–
CCOC(=O)C1=NN(c2cccc3ccccc23)C(C(=O)OCC)=NN1c1cccc2ccccc12 [compound 20, 1,4-Di-(α-naphthalene)-1,4-dihydro-1,2,4,5-tetrazine-3,6-dicarboxylic acid diethyl ester]	129 to 130	1910	524	1e+06	–
CN(C)C(=O)C1=NN(c2ccccc2)C(C(N)=O)=NN1c1ccccc1 [compound 6, N,N-Dimethyl-1,4-diphenyl-1,4-dihydro-1,2,4,5-tetrazine-3,6-dicarboxylic di-amide]	243 to 243.5	–	–	–	–
CCOC(=O)C1=NN(c2ccc([N+](=O)[O-])cc2)C(C(=O)OCC)=NN1c1ccc([N+](=O)[O-])cc1 [compound 15]	–	–	–	–	Ki (CB1 cannabinoid receptor): 100000 nM
CC(CO)NC(=O)C1=NN(c2ccccc2)C(C(=O)NC(C)CO)=NN1c1ccccc1 (stereo not shown) [compound 10]	262 to 263	–	1	100000	–
CC(=O)C1=NN(c2ccccc2)C(C(C)=O)=NN1c1ccccc1 [compound 4, 1,4-Diphenyl-1,4-dihydro-3,6-diacetyl-1,2,4,5-tetrazine]	–	–	1	10000	Ki (CB2 receptor): 10000 nM
CCOC(=O)C1=NN(C(=O)c2ccccc2)C(C(=O)OCC)=NN1C(=O)c1ccccc1 [compound 21, 1,4-Dibenzoyl-1,4-dihydro-1,2,4,5-tetrazine-3,6-dicarboxylic acid diethyl ester]	133.5 to 134	–	1	100000	–
CCOC(=O)c1nnc(C(=O)OCC)c2c1[nH]c1ccccc12	151 to 152	–	–	–	–
CCOC(=O)C1=NN(c2ccccc2)C(C(=O)NC2CC3CC(C2C)C3(C)C)=NN1c1ccccc1 (stereo not shown) [compound 14, 1,4-Diphenyl-1,4-dihydro-1,2,4,5-tetrazine-3-carboxylic N-piperidinyl amide-6-carboxylic acid ethyl ester]	–	805	2.6	–	Ki (CB1 cannabinoid receptor): 2050 nM
CCOC(=O)C1=NN(c2ccc(Br)cc2)C(C(=O)OCC)=NN1c1ccc(Cl)cc1 [compound 23]	130 to 131	30	18	542	–
N,N-Dibutyl-1,4-diphenyl-1,4-dihydro-1,2,4,5-tetrazine-3,6-dicarboxylic di-amide [compound 8]	–	692	23	16000	–
CCOC(=O)C1=NN(c2ccccc2)C(C(=O)N2CCCCC2)=NN1c1ccccc1 [compound 13, 1,4-Diphenyl-1,4-dihydro-1,2,4,5-tetrazine-3-carboxylic N-isopinocampheyl amide-6-carboxylic ethyl ester]	–	255	20	5040	–
CCOC(=O)C1=NN(c2ccc(Cl)cc2Cl)C(C(=O)OCC)=NN1c1ccc(Cl)cc1Cl [compound 19]	–	10000	1	10000	–
